Measured values: US20120196899A1, “METHODS AND PRODUCTS FOR TREATING INFLAMMATION” (Rock Creek Pharmaceuticals, Inc., priority 2010, published 2012)
Values joined by “and” are separate entries in the source; they are usually repeats but may differ in a detail not shown here. Equal values may be shown once. Read-outs that look alike come from different tables or passages of the source.

Assay: Plasma pharmacokinetics after oral multi-dose anatabine polacrilex
Assay type: in vivo, Sprague-Dawley rats
Settings: for Anatabine Concentration in rat plasma: dose 2 mg/kg; for Avg. Conc. of anatabine in plasma: dose group 2, female; for concentration at 30 min / concentration at 60 min / concentration at 235 min / concentration at 270 min / concentration at 300 min / concentration at 475 min / concentration at 540 min / concentration at 600 min / concentration at 720 min / Tmax / half-life: Sprague-Dawley, rat, plasma; for concentration at 30 min / concentration at 60 min / concentration at 235 min / concentration at 270 min / concentration at 300 min / concentration at 475 min / concentration at 540 min / concentration at 600 min / concentration at 720 min: oral; for Tmax / half-life: po; for half-life: mean
Protocol: This study consisted of two groups of 8 animals each, 4 males and 4 females.
Two formulations were prepared; one for each of the two treatment groups. The test compound was formulated for each treatment group just prior to the first dose administration and constantly stirred until dosing was completed (Table 37). Four aliquots of each dose level formulation were collected and stored at −80° C.
The animals were weighed prior to dosing and received three doses p.o. of test compound at a volume of 5 mL/kg. Blood was collected via the venus plexus (retro-orbital) into tubes containing (K2) EDTA. No more than 0.5 mL was collected per time point.
Plasma was separated as per package instructions for MICROTAINER® brand collection tubes (3 minutes, 2000×g). Plasma was decanted into microfuge tubes and stored at −80° C. Remaining test compound was placed at −80° C.
Sample preparation. Plasma samples were treated with three volumes of methanol containing internal standard at 1 μM (R,S)-Antabine-2,4,5,6-d4), incubated 10 min at 4° C., and centrifuged. The amount of the test agent in the supernatant was determined by LC/MS/MS.
Analysis. Samples were analyzed by LC/MS/MS using an Agilent 6410 mass spectrometer coupled with an Agilent 1200 high pressure liquid chromatography (HPLC) and a CTC PAL chilled autosampler, all controlled by MassHunter software (Agilent). After separation on a Hydrophilic interaction liquid chromatography (HILIC) HPLC column (Sepax) using an acetonitrile-ammonium acetate/acetic acid gradient system, peaks were analyzed by mass spectrometry (MS) using ESI ionization in multiple reaction monitoring (MRM) mode. MassHunter software was used to calculate the concentration of the test compounds in samples from the peak area using the appropriate calibration curves.
Calibration samples. Calibration curves were determined in rat plasma. Calibration samples were prepared by diluting a 50× stock solution of the test compound in PBS with blank matrix to the appropriate concentration and these samples were prepared as described above in the sample preparation.
Data Analysis. Descriptive statistics were calculated for all pharmacokinetic parameters. Elimination half-lives (t1/2) were calculated by linear regression of logarithmically transformed plasma concentration data for each period between doses and following the final dose.
Total areas under the plasma concentration curves (AUC) and under the first moment curves (AUMC) were calculated using linear trapezoidal summation across all concentration time points as well as for intervals between each dose administration and following the final dose. […] Mean absorption times (MAT) were calculated according to the following relation: […]
where MRT represents the mean residence time. This was calculated from the mean residence times.
The statistical comparison of parameters between male and female animals was made using a two-tailed, unpaired, t-test with a 95 percent confidence interval. Repeated-measures analysis of variance (ANOVA) was used for multiple comparisons of Cp, max involving successive determinations on the same group of animals.

[1] = females, 6.0 mg/kg BW group, anatabine polacrilex p.o.

Compound: C1=CCC(c2cccnc2)NC1 (racemic) [Anatabine, 1,2,3,6-tetrahydro-[2,3′]bipyridinyl]
- Anatabine Concentration in rat plasma (female, 270 min, individual animals 4A-4D): 324 ng/mL and 350 ng/mL
- Anatabine Concentration in rat plasma (female, 300 min, individual animals 4A-4D): 216 ng/mL and 97 ng/mL and 191 ng/mL and 414 ng/mL
- Anatabine Concentration in rat plasma (female, 475 min, individual animals 4A-4D): 219 ng/mL and 178 ng/mL and 179 ng/mL
- Anatabine Concentration in rat plasma (female, 540 min, individual animals 4A-4D): 231 ng/mL and 314 ng/mL and 369 ng/mL and 474 ng/mL
- Anatabine Concentration in rat plasma (female, 600 min, individual animals 4A-4D): 197 ng/mL and 207 ng/mL and 480 ng/mL and 288 ng/mL
- Anatabine Concentration in rat plasma (female, 720 min, individual animals 4A-4D): 165 ng/mL and 217 ng/mL
- Anatabine Concentration in rat plasma (male, 235 min, individual animals 3A-3D): 46 ng/mL and 63 ng/mL and 105 ng/mL
- Anatabine Concentration in rat plasma (male, 270 min, individual animals 3A-3D): 364 ng/mL and 309 ng/mL
- Anatabine Concentration in rat plasma (male, 300 min, individual animals 3A-3D): 232 ng/mL and 202 ng/mL
- Anatabine Concentration in rat plasma (male, 475 min, individual animals 3A-3D): 97 ng/mL
- Anatabine Concentration in rat plasma (male, 540 min, individual animals 3A-3D): 290 ng/mL and 173 ng/mL
- Anatabine Concentration in rat plasma (male, 600 min, individual animals 3A-3D): 173 ng/mL and 130 ng/mL and 150 ng/mL
- Anatabine Concentration in rat plasma (male, 720 min, individual animals 3A-3D): 401 ng/mL and 137 ng/mL and 71 ng/mL
- Avg. Conc. of anatabine in plasma (30 min): 160 ng/mL
- Avg. Conc. of anatabine in plasma (60 min): 129 ng/mL
- Avg. Conc. of anatabine in plasma (235 min): 44 ng/mL
- Avg. Conc. of anatabine in plasma (270 min): 316 ng/mL
- Avg. Conc. of anatabine in plasma (300 min): 234 ng/mL
- Avg. Conc. of anatabine in plasma (540 min): 386 ng/mL
- Avg. Conc. of anatabine in plasma (600 min): 325 ng/mL
- Avg. Conc. of anatabine in plasma (720 min): 208 ng/mL
- concentration at 30 min (female, 0.2 mg/kg BW, Avg. Conc. of anatabine in plasma, dose group 0.2, female, 30 min): 37 ng/mL
- concentration at 60 min (female, 0.2 mg/kg BW, Avg. Conc. of anatabine in plasma, dose group 0.2, female, 60 min): 35 ng/mL
- concentration at 235 min (female, 0.2 mg/kg BW, Avg. Conc. of anatabine in plasma, dose group 0.2, female, 235 min): 12 ng/mL
- concentration at 270 min (female, 0.2 mg/kg BW, Avg. Conc. of anatabine in plasma, dose group 0.2, female, 270 min): 26 ng/mL
- concentration at 300 min (female, 0.2 mg/kg BW, Avg. Conc. of anatabine in plasma, dose group 0.2, female, 300 min): 34 ng/mL
- concentration at 475 min (female, 0.2 mg/kg BW, Avg. Conc. of anatabine in plasma, dose group 0.2, female, 475 min): 8 ng/mL
- concentration at 540 min (female, 0.2 mg/kg BW, Avg. Conc. of anatabine in plasma, dose group 0.2, female, 540 min): 34 ng/mL
- concentration at 600 min (female, 0.2 mg/kg BW, Avg. Conc. of anatabine in plasma, dose group 0.2, female, 600 min): 28 ng/mL
- concentration at 720 min (female, 0.2 mg/kg BW, Avg. Conc. of anatabine in plasma, dose group 0.2, female, 720 min): 12 ng/mL
- concentration at 30 min (female, 0.2 mg/kg, Anatabine Concentration in rat plasma, 30 min, individual animals 2A-2D): 34 ng/mL
- concentration at 60 min (female, 0.2 mg/kg, Anatabine Concentration in rat plasma, 60 min, individual animals 2A-2D): 29 ng/mL
- concentration at 475 min (female, 0.2 mg/kg, Anatabine Concentration in rat plasma, 475 min, individual animals 2A-2D): 7 ng/mL
- concentration at 540 min (female, 0.2 mg/kg, Anatabine Concentration in rat plasma, 540 min, individual animals 2A-2D): 24 ng/mL
- concentration at 270 min (female, 2 mg/kg, Anatabine Concentration in rat plasma, 270 min, individual animals 4A-4D): 237 ng/mL
- concentration at 475 min (female, 2 mg/kg, Anatabine Concentration in rat plasma, 475 min, individual animals 4A-4D): 144 ng/mL
- concentration at 720 min (female, 2 mg/kg, Anatabine Concentration in rat plasma, 720 min, individual animals 4A-4D): 186 ng/mL
- Tmax (female, 0.6 mg/kg, female rats, after dose 1, mean, read-out: Tmax(1)): 0.63 h
- Tmax (female, 0.6 mg/kg, female rats, after dose 2, mean, read-out: Tmax(2)): 0.88 h
- Tmax (female, 0.6 mg/kg, female rats, after dose 3, mean, read-out: Tmax(3)): 1.25 h
- half-life (female, 0.6 mg/kg, female rats, after first dose, read-out: t1/2,0→4 (converted)): 2.06 h
- half-life (female, 0.6 mg/kg, female rats, read-out: t1/2, terminal (converted)): 1.8 h
- Tmax (female, 6 mg/kg, female rats, after dose 1, mean, read-out: Tmax(1)): 0.5 h
- Tmax (female, 6 mg/kg, female rats, after dose 2, mean, read-out: Tmax(2)): 0.63 h
- Tmax (female, 6 mg/kg, female rats, after dose 3, mean, read-out: Tmax(3)): 1.25 h
- half-life (female, 6 mg/kg, female rats, after first dose, read-out: t1/2,0→4 (converted)): 1.82 h
- half-life (female, 6 mg/kg, female rats, read-out: t1/2, terminal (converted)): 3.99 h
- half-life (female, both treatment groups combined, female rats, read-out: t1/2,0→4 (converted)): 1.94 h
- Cp, max, initial value (increase from) [1]: 259.8 ± 35.4 ng/mL
- Cp, max, later value (increase to) [1]: 374.8 ± 122.9 ng/mL
- Cp, min, first minimum [1]: 51.5 ± 26.0 ng/mL
- Cp, min(2), second minimum (females, 6.0 mg/kg BW group, anatabine polacrilex p.o., 6 mg/kg): 180 ± 31 ng/mL and 180.0 ± 30.7 ng/mL
- concentration at 300 min (male, 0.2 mg/kg BW, Avg. Conc. of anatabine in plasma, dose group 0.2, male, 300 min): 26 ng/mL
- concentration at 475 min (male, 0.2 mg/kg BW, Avg. Conc. of anatabine in plasma, dose group 0.2, male, 475 min): 18 ng/mL
- concentration at 540 min (male, 0.2 mg/kg BW, Avg. Conc. of anatabine in plasma, dose group 0.2, male, 540 min): 38 ng/mL
- concentration at 600 min (male, 0.2 mg/kg BW, Avg. Conc. of anatabine in plasma, dose group 0.2, male, 600 min): 29 ng/mL
- concentration at 720 min (male, 0.2 mg/kg BW, Avg. Conc. of anatabine in plasma, dose group 0.2, male, 720 min): 12 ng/mL
- concentration at 30 min (male, 0.2 mg/kg, Anatabine Concentration in rat plasma, 30 min, individual animals 1A-1D): 29 ng/mL
- concentration at 60 min (male, 0.2 mg/kg, Anatabine Concentration in rat plasma, 60 min, individual animals 1A-1D): 32 ng/mL
- concentration at 235 min (male, 0.2 mg/kg, Anatabine Concentration in rat plasma, 235 min, individual animals 1A-1D): 11 ng/mL
- concentration at 270 min (male, 0.2 mg/kg, Anatabine Concentration in rat plasma, 270 min, individual animals 1A-1D): 35 ng/mL
- concentration at 300 min (male, 0.2 mg/kg, Anatabine Concentration in rat plasma, 300 min, individual animals 1A-1D): 22 ng/mL
- concentration at 30 min (male, 0.2 mg/kg, Avg. Conc. of anatabine in plasma, dose group 0.2, male, 30 min): 33 ng/mL
- concentration at 60 min (male, 0.2 mg/kg, Avg. Conc. of anatabine in plasma, dose group 0.2, male, 60 min): 30 ng/mL
- concentration at 235 min (male, 0.2 mg/kg, Avg. Conc. of anatabine in plasma, dose group 0.2, male, 235 min): 11 ng/mL
- concentration at 270 min (male, 0.2 mg/kg, Avg. Conc. of anatabine in plasma, dose group 0.2, male, 270 min): 26 ng/mL
- concentration at 30 min (male, 2 mg/kg BW, Avg. Conc. of anatabine in plasma, dose group 2, male, 30 min): 243 ng/mL
- concentration at 235 min (male, 2 mg/kg BW, Avg. Conc. of anatabine in plasma, dose group 2, male, 235 min): 72 ng/mL
- concentration at 270 min (male, 2 mg/kg BW, Avg. Conc. of anatabine in plasma, dose group 2, male, 270 min): 303 ng/mL
- concentration at 300 min (male, 2 mg/kg BW, Avg. Conc. of anatabine in plasma, dose group 2, male, 300 min): 183 ng/mL
- concentration at 475 min (male, 2 mg/kg BW, Avg. Conc. of anatabine in plasma, dose group 2, male, 475 min): 97 ng/mL
- concentration at 540 min (male, 2 mg/kg BW, Avg. Conc. of anatabine in plasma, dose group 2, male, 540 min): 226 ng/mL
- concentration at 600 min (male, 2 mg/kg BW, Avg. Conc. of anatabine in plasma, dose group 2, male, 600 min): 151 ng/mL
- concentration at 720 min (male, 2 mg/kg BW, Avg. Conc. of anatabine in plasma, dose group 2, male, 720 min): 203 ng/mL
- concentration at 475 min (male, 2 mg/kg, Anatabine Concentration in rat plasma, 475 min, individual animals 3A-3D): 79 ng/mL
- concentration at 540 min (male, 2 mg/kg, Anatabine Concentration in rat plasma, 540 min, individual animals 3A-3D): 214 ng/mL
- Tmax (male, 0.6 mg/kg, male rats, after dose 1, mean, read-out: Tmax(1)): 0.75 h
- Tmax (male, 0.6 mg/kg, male rats, after dose 2, mean, read-out: Tmax(2)): 0.63 h
- Tmax (male, 0.6 mg/kg, male rats, after dose 3, mean, read-out: Tmax(3)): 1 h
- half-life (male, 0.6 mg/kg, male rats, after first dose, read-out: t1/2,0→4 (converted)): 2.05 h
- half-life (male, 0.6 mg/kg, male rats, read-out: t1/2, terminal (converted)): 1.78 h
- Tmax (male, 6 mg/kg, male rats, after dose 1, mean, read-out: Tmax(1)): 0.63 h
- Tmax (male, 6 mg/kg, male rats, after dose 2, mean, read-out: Tmax(2)): 0.63 h
- Tmax (male, 6 mg/kg, male rats, after dose 3, mean, read-out: Tmax(3)): 2 h
- half-life (male, 6 mg/kg, male rats, after first dose, read-out: t1/2,0→4 (converted)): 1.76 h
- half-life (male, 6 mg/kg, male rats, read-out: t1/2, terminal (converted)): 5.07 h
- half-life (male, both treatment groups combined, male rats, read-out: t1/2,0→4 (converted)): 1.92 h
